Measurements from patent US20170334899A1, “AMINO-SUBSTITUTED ISOTHIAZOLES” (Bayer Pharma Aktiengesellschaft, priority 2014, published 2017).

system: HeLa; assay: Proliferation assay (crystal violet), HeLa; assay type: cell-based; details: Homo sapiens, HeLa, 96 h, HeLa cells; 4 days incubation; crystal violet staining; read-out: IC50 inhibition of proliferation, HeLa
In short: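 Absorbance at 595 nm of crystal-violet-stained cells after 4 days' exposure to 0.001–10 μM compound (0.5% DMSO). Values normalized to a day-0 plate (0%) and untreated cells (100%); IC50 by 4-parameter fit.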

SMILES	IC50
Cc1nsc(Nc2cnc(C(F)(F)F)cn2)c1C(=O)Nc1ccc(F)c(OC[C@H]2CCCN(CC(F)F)C2)c1 [Example 400, N-(3-{[(3S)-1-(2,2-difluoroethyl)piperidin-3-yl]methoxy}-4-fluorophenyl)-3-methyl-5-{[5-(trifluoromethyl)pyrazin-2-yl]amino}-1,2-thiazole-4-carboxamide]	0.77 µM
Cc1nsc(Nc2cnc(C(F)(F)F)cn2)c1C(=O)Nc1ccc(OCC2CCN(CC(F)F)CC2(F)F)nc1 (stereo not shown) [Example 401, N-(6-{[1-(2,2-difluoroethyl)-3,3-difluoropiperidin-4-yl]methoxy}pyridin-3-yl)-3-methyl-5-{[5-(trifluoromethyl)pyrazin-2-yl]amino}-1,2-thiazole-4-carboxamide]	0.43 µM
Cc1nsc(Nc2cnc(C(F)(F)F)cn2)c1C(=O)Nc1ccc(OCC2CCN(CCC(F)(F)F)CC2(F)F)nc1 (stereo not shown) [Example 402, N-(6-{[3,3-difluoro-1-(3,3,3-trifluoropropyl)piperidin-4-yl]methoxy}pyridin-3-yl)-3-methyl-5-{[5-(trifluoromethyl)pyrazin-2-yl]amino}-1,2-thiazole-4-carboxamide]	0.34 µM
Cc1nsc(Nc2cnc(C(F)(F)F)cn2)c1C(=O)Nc1ccc(F)c(OC[C@@H]2CCN(CC(F)F)C2)c1 [Example 403, N-(3-{[(3R)-1-(2,2-difluoroethyl)pyrrolidin-3-yl]methoxy}-4-fluorophenyl)-3-methyl-5-{[5-(trifluoromethyl)pyrazin-2-yl]amino}-1,2-thiazole-4-carboxamide]	0.45 µM
Cc1nsc(Nc2cnc(C(F)(F)F)cn2)c1C(=O)Nc1ccc(OC[C@H]2CCN(CC(F)(F)F)C2)nc1 [Example 404, 3-Methyl-N-(6-{[(3S)-1-(2,2,2-trifluoroethyl)pyrrolidin-3-yl]methoxy}pyridin-3-yl)-5-{[5-(trifluoromethyl)pyrazin-2-yl]amino}-1,2-thiazole-4-carboxamide]	0.25 µM
Cc1nsc(Nc2ccc(C#N)cn2)c1C(=O)Nc1ccc(OC[C@H]2CCN(CC(F)(F)F)C2)nc1 [Example 405, 5-[(5-Cyanopyridin-2-yl)amino]-3-methyl-N-(6-{[(35)-1-(2,2,2-trifluoroethyl)pyrrolidin-3-yl]methoxy}pyridin-3-yl)-1,2-thiazole-4-carboxamide]	0.44 µM
CCN1CCC(Oc2ccc(NC(=O)c3c(C)nsc3Nc3cnc(C(F)(F)F)cn3)cn2)C(F)(F)C1 (stereo not shown) [Example 406, N-{6-[(1-Ethyl-3,3-difluoropiperidin-4-yl)oxy]pyridin-3-yl}-3-methyl-5-{[5-(trifluoromethyl)pyrazin-2-yl]amino}-1,2-thiazole-4-carboxamide]	0.16 µM
Cc1nsc(Nc2cnc(C(F)(F)F)cn2)c1C(=O)Nc1ccc(OCCN2CCC(F)(F)CC2)nc1 [Example 407, N-{6-[2-(4,4-Difluoropiperidin-1-yl)ethoxy]pyridin-3-yl}-3-methyl-5-{[5-(trifluoromethyl)pyrazin-2-yl]amino}-1,2-thiazole-4-carboxamide]	0.33 µM
CCCN1C[C@H](F)[C@H](Oc2ccc(NC(=O)c3c(C)nsc3Nc3cnc(C(F)(F)F)cn3)cn2)C1 [Example 408, N-(6-{[(3R,4S)-4-Fluoro-1-propylpyrrolidin-3-yl]oxy}pyridin-3-yl)-3-methyl-5-{[5-(trifluoromethyl)pyrazin-2-yl]amino}-1,2-thiazole-4-carboxamide]	0.26 µM
Cc1nsc(Nc2cnc(C(F)(F)F)cn2)c1C(=O)Nc1ccc(O[C@@H]2CN(CCC(F)(F)F)C[C@@H]2F)nc1 [Example 409, N-(6-{[(3R,4S)-4-Fluoro-1-(3,3,3-trifluoropropyl)pyrrolidin-3-yl]oxy}pyridin-3-yl)-3-methyl-5-{[5-(trifluoromethyl)pyrazin-2-yl]amino}-1,2-thiazole-4-carboxamide]	0.19 µM
